Experimental data as given in article doi:10.1101/2024.12.09.627564, “Cannabinoid inhibition of mechanosensitive K^+ channels” (bioRxiv, 2024).
Changes are numbered by the printed parent chain. Like-named read-outs stand apart in the source and are kept apart here.

Experiments:
[1] = biological target: T1, Homo sapiens TRAAK (Homo sapiens, UniProt Q9NYG8); test: Excised inside-out patch recording of TRAAK from Xenopus oocytes; format: biochemical; settings: for inhibition at 1 µM: 1 μM CBD, read-out: percent inhibition
T1 construct: The transcribed messages encode H. sapiens TRAAK amino acids 1–393; expressed in transfected cells; host or cells: Xenopus laevis oocytes, cRNA injection
T1 sequence (Q9NYG8 1-393): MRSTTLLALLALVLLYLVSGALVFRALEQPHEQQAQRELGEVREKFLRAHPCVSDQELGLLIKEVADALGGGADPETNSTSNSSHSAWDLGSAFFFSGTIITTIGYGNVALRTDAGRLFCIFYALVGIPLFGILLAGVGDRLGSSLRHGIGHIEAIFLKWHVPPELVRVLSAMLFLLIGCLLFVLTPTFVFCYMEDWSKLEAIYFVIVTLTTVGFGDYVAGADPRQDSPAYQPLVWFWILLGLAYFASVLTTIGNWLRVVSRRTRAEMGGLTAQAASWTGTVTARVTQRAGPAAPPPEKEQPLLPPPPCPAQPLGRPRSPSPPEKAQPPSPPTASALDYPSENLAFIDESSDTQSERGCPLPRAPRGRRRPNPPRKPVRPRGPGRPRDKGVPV
Source text: For patch clamp recording from Xenopus oocytes, genes encoding full-length Homo sapiens TRAAK (UniProt Q9NYG8–2), TREK-1 (UniProt O95069), and TREK-2 (UniProt P57789) were codon optimized for eukaryotic expression, synthesized (Genewiz), and cloned into a modified pGEMHE vector using Xho1 and EcoR1 restriction sites. The transcribed messages encode H. sapiens TRAAK amino acids 1–393, TREK-1 amino acids 1–426, or TREK-2 amino acids 1–538 with an additional three amino acids (SNS) at the C terminus. TRAAK mutants were introduced by polymerase chain reaction (PCR). Linearized DNA was transcribed in vitro using T7 polymerase. Complementary RNA (0.1 to 10 ng for TRAAK, TREK-1, TREK-2, and mutants) in 50 nL H2O was injected into Xenopus laevis oocytes extracted from anesthetized frogs. Currents were recorded at 25 °C from inside-out patches excised from oocytes 1 to 5 d after RNA injection. The pipette solution contained 15 mM KCl, 135 mM NaCl, 2 mM MgCl2, and 10 mM HEPES (pH = 7.4 with KOH) and the bath solution contained 150 mM KCl and 10 mM HEPES (pH = 7.1 with KOH). Borosilicate glass pipettes were pulled to 2–5 MΩ resistance.
Patches were evaluated with voltage-step protocols to confirm TRAAK expression and minimal non-specific leak based on reversal potential. Currents were recorded using an Axopatch 200B amplifier (Molecular Devices) at a bandwidth of 1 kHz and digitized with an Digidata 1550B (Molecular Devices) at 100–500 kHz using pClamp10.7 software. Pressure was applied with a second-generation high-speed pressure clamp device (HSPC-2-SB, ALA Scientific Instruments). Aggregated data were from patches from n ≥ 2 different cells on different days. No relevant differences were observed between patches from different cells. In an effort to minimize variability associated with differences in resting membrane tension, we targeted patches with low basal curvature and low resting channel activity and ensured measured pressure difference across the patch was as close to zero as possible at rest to prevent mechanical activation of channels. Data were analyzed using Clampfit 10.7, Excel, and Graphpad Prism software. For voltage families, the data were decimated 100x and plotted in Prism. Statistical analysis was conducted with Dunnett’s multiple comparisons test after an ordinary one-way ANOVA using Prism software.
To avoid cannabinoid absorption to plastic, cannabinoid solutions were made in glass vials and diluted by weight, perfusion was performed using glass tubing pulled from borosilicate glass Pasteur pipettes (Fisherbrand, Cat# 13–678-20C), and recordings were performed in glass chambers. Channel activity was continuously recorded during perfusion steps. Patches were exposed to each cannabinoid concentration until a stable current level was reached (0.5–2 minutes). CBD (Cayman Chemical cat#90080) was prepared as a 10mM stock solution in DMSO, CBN (Cayman Chemical cat#25495) was prepared as a 80mM stock solution in DMSO, CBDV (Phytolab Cat#85955) was prepared as a 10mM stock solution in DMSO, and CBDP (Cayman Chemical cat#33611) was purchased as a 2.9 mM stock solution in methanol. Cannabinoids were serially diluted in bath solution to achieve working concentrations of 50 μM to 10 nM. Bath volume in the recording chamber was minimized by suction and drug-containing solutions were delivered three times to ensure establishment of desired concentration in the recording chamber. Cannabinoids were applied from low to high concentration. The recording chamber and perfusion system were washed extensively with methanol after every trial.
The effects of cannabinoids on channel activity were quantified by the reduction in channel current evoked at 0 mV during a gap-free recording or during 200 ms long voltage families with steps ranging from −100 to +100 mV. Currents were normalized to those prior to cannabinoid application to facilitate comparisons across different patches and cells. […]

[2] = biological target: T2, TRAAKP259L (Homo sapiens, UniProt Q9NYG8, P233L); test: Excised patch recording of TRAAK mutant P259L; format: biochemical
T2 construct: The transcribed messages encode H. sapiens TRAAK amino acids 1–393; expressed in transfected cells; host or cells: Xenopus laevis oocytes, cRNA injection
T2 sequence (Q9NYG8 1-393 P233L): T1 sequence (Q9NYG8 1-393) with P233L
Source text: For patch clamp recording from Xenopus oocytes, genes encoding full-length Homo sapiens TRAAK (UniProt Q9NYG8–2), TREK-1 (UniProt O95069), and TREK-2 (UniProt P57789) were codon optimized for eukaryotic expression, synthesized (Genewiz), and cloned into a modified pGEMHE vector using Xho1 and EcoR1 restriction sites. The transcribed messages encode H. sapiens TRAAK amino acids 1–393, TREK-1 amino acids 1–426, or TREK-2 amino acids 1–538 with an additional three amino acids (SNS) at the C terminus. TRAAK mutants were introduced by polymerase chain reaction (PCR). Linearized DNA was transcribed in vitro using T7 polymerase. […] Currents were recorded at 25 °C from inside-out patches excised from oocytes 1 to 5 d after RNA injection. […]
Patches were evaluated with voltage-step protocols to confirm TRAAK expression and minimal non-specific leak based on reversal potential. Currents were recorded using an Axopatch 200B amplifier (Molecular Devices) at a bandwidth of 1 kHz and digitized with an Digidata 1550B (Molecular Devices) at 100–500 kHz using pClamp10.7 software. […] In an effort to minimize variability associated with differences in resting membrane tension, we targeted patches with low basal curvature and low resting channel activity and ensured measured pressure difference across the patch was as close to zero as possible at rest to prevent mechanical activation of channels. […]

## C=C(C)[C@@H]1CCC(C)=C[C@H]1c1c(O)cc(CCCCC)cc1O [CBD, Cannabidiol]
[1]
  IC50: ~145 nM
[1]; after mβCD treatment (high membrane tension)
  inhibition at 1 µM: 43 ± 13%
[1]; prior to mβCD treatment
  inhibition at 1 µM: 91 ± 3%
[1]; 0.5, 1 and 10 μM CBD
  effect on mechanical activation of TRAAK by negative pressure steps: more negative pressure was required to activate TRAAK to the same degree
[1]; TRAAK dose-response
  Hill-coefficient: 1.3
[1]; TRAAK inhibitors
  fold higher affinity than RU-TRAAK-1 and −2: 3–5 fold
[1]; TRAAK, excised patches
  concentration at which effects are evident: 1 to 10 nM
  concentration of full inhibition: ~ 1 μM
[1]; after vs prior to mβCD treatment
  fold higher concentration required for similar inhibition after mβCD treatment: Approximately 10 fold
[1]; nonspecific TRAAK inhibitors
  fold higher affinity than ruthenium red and TKDC: greater than 10 fold
[2]
  IC50: 156 ± 8 nM
